Our source for the Glass transition temperature, melting point and Solubility values is patent publication US8816135B2, “Trisphenol compound” (Honshu Chemical Industry Co., Ltd., priority 2009, dated 2014).

Structures are written as SMILES.

Data set [1] is described as follows: Measurement of glass transition temperature by differential scanning calorimeter. The format is physicochemical. Conditions: DSC, melted compound cooled and heated again, 10.0° C./min. The protocol:
Each compound was heated to a temperature 20° C. higher than the melting point of the compound in crystal form using a differential scanning calorimeter, and the melted compound was cooled and then heated again to measure the glass transition point. The measurement conditions were 40° C. as the temperature at which to start measurement, the melting point+20° C. as the temperature at which to end measurement, and 10.0° C./min. as the rate of heating.
In general terms: DSC measures the heat that a sample takes up or gives off during a temperature scan.

A short description of data set [2]: Measurement of solubility in solvent (propyleneglycolmonomethylether acetate). To be noted: 28° C., largest amount that dissolved completely, added in 1 g steps to 10 g of solvent.
Procedure: As for solubility, 10 g of propyleneglycolmonomethylether acetate was put in a container and 1 g of trisphenol compound was added while keeping the temperature at 28° C., and the mixture was agitated for 10 minutes to check for complete dissolution of the compound. […] The solubility (amount in grams per 100 g of solvent) was calculated from the largest amount of compound in grams that dissolved completely.

As a reminder, the melting point is the temperature, or range, at which the solid turns liquid. As to `Cc1cc(C(C)(c2ccc(-c3ccc(O)cc3)cc2)c2cc(C)c(O)c(C)c2)cc(C)c1O` [Example 3, 1-[4-(4-hydroxyphenyl)phenyl]-1,1-bis(4-hydroxy-3,5-dimethylphenyl)ethane], the melting point is 231 °C. This compound came in with a Glass transition temperature in data set [1] of 104 °C. For the same compound, the Solubility in data set [2] is reported as 10 g/100 g of propyleneglycolmonomethylether acetate.

Take `CC(C)(c1ccc(O)cc1)c1ccc(C(C)(c2ccc(O)cc2)c2ccc(O)cc2)cc1` [Comparative Example, 1-[α-methyl-α-(4-hydroxyphenyl)ethyl]-4-[α,α-bis(4-hydroxyphenyl)ethyl]benzene, reference compound]: the Glass transition temperature in data set [1] amounted to 96 °C.

Take `CC(c1ccc(O)cc1)(c1ccc(O)cc1)c1ccc(-c2ccc(O)cc2)cc1` [Example 1, 1-[4-(4-hydroxyphenyl)phenyl]-1,1-bis(4-hydroxyphenyl)ethane]: the melting point was 198 °C. The Solubility in data set [2] is on record as 40 g/100 g of propyleneglycolmonomethylether acetate.
